The text below walks through data of patent US20250368648A1, “MULTI-CYCLIC IRAK AND FLT3 INHIBITING COMPOUNDS AND USES THEREOF” (CHILDREN'S HOSPITAL MEDICAL CENTER, priority 2022, published 2025).

A value given as a limit tells only on which side of the number the result lay.

One may read the IC50 as the point on the concentration scale where inhibition reaches its midpoint. Low readings indicate higher potency, high ones lower potency.

For assay [1], the system named is MOLM14 D835Y cells. The experiment in a line: MOLM14 D835Y cell viability assay (Cell Titer Glo). In kind it is cell-based. As for the experimental part:
The cell line has activated FLT3 receptors which carry additional resistance mutations in the kinase domain (D835Y).
MOLM14 D835Y cells were grown in RPMI-1640 media supplemented with 20% fetal bovine serum (FBS). […] After cell addition, 23 nL of test compound were transferred into individual wells (22 doses tested for each test compound, with a 1:2 dilution series starting at 10 μM) via a 1536 pin-tool. Bortezomib (final concentration 2.3 μM) was used as a positive control for cell cytotoxicity.

For assay [2], the target named is T1, IRAK4 (Homo sapiens, UniProt Q9NWZ3).
T1 sequence (Q9NWZ3 1-460): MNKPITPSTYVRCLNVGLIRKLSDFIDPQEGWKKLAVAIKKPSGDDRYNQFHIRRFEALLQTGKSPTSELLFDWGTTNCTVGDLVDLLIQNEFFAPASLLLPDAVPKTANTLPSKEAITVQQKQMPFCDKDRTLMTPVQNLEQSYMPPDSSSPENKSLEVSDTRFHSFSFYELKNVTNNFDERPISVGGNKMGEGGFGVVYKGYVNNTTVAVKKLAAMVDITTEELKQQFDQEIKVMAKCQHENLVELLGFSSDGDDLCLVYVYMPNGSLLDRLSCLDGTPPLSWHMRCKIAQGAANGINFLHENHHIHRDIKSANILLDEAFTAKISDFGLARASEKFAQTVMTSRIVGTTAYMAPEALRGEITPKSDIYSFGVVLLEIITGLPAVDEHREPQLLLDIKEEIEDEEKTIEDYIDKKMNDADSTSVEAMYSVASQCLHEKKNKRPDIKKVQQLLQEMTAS
The experiment in a line: RBC HotSpot Kinase Assay, IRAK4. Type of assay: biochemical. Further details: purchased RBC (Reaction Biology) HotSpot assay. Particulars: HotSpot functional assay, isolated kinase enzyme, 33P-ATP. In outline: (§1)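 Isolated kinases, possibly truncated or lacking regulatory receptor regions, were preincubated with compound for 20 min at room temp in 20 mM Hepes pH 7.5, 10 mM MgCl2, 1 mM EGTA, 2 mM DTT, 1% DMSO. Reactions were started with ^33P-ATP and run 2 h at room temperature; activity was read by P81 filter binding.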

For assay [3], the target named is T2, FLT3 (Homo sapiens, UniProt P36888).
T2 sequence (P36888 27-993): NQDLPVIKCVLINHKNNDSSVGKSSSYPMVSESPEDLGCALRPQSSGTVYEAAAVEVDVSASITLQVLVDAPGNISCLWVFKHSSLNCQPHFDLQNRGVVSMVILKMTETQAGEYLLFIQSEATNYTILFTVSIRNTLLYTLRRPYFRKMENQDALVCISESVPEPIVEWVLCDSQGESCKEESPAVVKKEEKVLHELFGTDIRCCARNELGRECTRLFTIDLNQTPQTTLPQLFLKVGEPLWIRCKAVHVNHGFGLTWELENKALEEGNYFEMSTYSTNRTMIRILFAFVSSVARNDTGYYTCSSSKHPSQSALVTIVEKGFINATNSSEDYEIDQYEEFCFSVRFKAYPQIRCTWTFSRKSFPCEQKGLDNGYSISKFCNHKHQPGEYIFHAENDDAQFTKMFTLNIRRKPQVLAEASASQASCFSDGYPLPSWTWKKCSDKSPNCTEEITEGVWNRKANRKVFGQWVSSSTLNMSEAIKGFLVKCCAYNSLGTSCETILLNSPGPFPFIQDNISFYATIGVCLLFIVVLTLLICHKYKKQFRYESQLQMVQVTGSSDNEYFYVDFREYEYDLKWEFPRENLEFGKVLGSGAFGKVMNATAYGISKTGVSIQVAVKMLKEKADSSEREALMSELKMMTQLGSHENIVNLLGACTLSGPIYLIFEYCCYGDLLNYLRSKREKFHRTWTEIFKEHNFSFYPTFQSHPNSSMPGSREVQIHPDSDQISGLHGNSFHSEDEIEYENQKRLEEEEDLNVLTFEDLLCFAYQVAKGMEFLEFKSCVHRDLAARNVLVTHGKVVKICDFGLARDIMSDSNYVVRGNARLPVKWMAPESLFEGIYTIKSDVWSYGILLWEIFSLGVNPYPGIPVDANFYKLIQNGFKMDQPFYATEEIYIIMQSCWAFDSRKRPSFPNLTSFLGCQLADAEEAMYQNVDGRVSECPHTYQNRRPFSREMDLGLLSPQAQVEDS
The experiment in a line: RBC HotSpot Kinase Assay, FLT3. Type of assay: biochemical. On the set-up: purchased RBC (Reaction Biology) HotSpot assay. Particulars: HotSpot functional assay, isolated kinase enzyme, 33P-ATP. In outline:
as §1

For assay [4], the target named is T3, IRAK1 (Homo sapiens, UniProt P51617).
T3 construct: purchased RBC (Reaction Biology) HotSpot assay
The experiment in a line: RBC HotSpot Kinase Assay, IRAK1. In kind it is biochemical. Particulars: HotSpot functional assay, isolated kinase enzyme, 33P-ATP. In outline:
as §1

T3 sequence (P51617 whole entry): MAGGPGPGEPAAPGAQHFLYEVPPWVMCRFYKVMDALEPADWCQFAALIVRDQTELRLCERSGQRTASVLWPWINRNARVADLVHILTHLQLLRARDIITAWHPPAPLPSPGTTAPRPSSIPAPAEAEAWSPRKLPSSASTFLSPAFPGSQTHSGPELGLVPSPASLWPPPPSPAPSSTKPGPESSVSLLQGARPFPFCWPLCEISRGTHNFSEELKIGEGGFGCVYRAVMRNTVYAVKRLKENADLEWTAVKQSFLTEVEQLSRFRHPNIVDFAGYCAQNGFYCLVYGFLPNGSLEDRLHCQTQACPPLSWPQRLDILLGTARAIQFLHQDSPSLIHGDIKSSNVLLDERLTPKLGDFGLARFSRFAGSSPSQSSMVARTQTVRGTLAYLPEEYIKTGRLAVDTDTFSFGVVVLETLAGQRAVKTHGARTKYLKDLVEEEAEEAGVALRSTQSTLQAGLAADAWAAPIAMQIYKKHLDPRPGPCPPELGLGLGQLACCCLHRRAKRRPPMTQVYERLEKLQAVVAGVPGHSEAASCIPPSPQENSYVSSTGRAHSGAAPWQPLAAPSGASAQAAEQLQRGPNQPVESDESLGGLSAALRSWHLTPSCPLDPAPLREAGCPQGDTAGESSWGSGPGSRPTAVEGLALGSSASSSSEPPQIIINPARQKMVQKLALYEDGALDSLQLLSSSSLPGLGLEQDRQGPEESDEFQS

As for `COc1cc2ncc(-c3nc(N[C@@H]4CCCNC4)ccc3F)n2nc1C1CC1` [Compound 44a, (R)-6-(6-cyclopropyl-7-methoxyimidazo[1,2-b]pyridazin-3-yl)-5-fluoro-N-(piperidin-3-yl)pyridin-2-amine], the IC50 in assay [1] (Homo sapiens, MOLM-14, 48 h) is 3 nM; in assay [2], 2 nM; in assay [3], under 0.5 nM; in assay [4], 62 nM.
Take `COc1cc2ncc(-c3nc(N[C@H]4CNCC[C@@H]4F)c(F)cc3F)n2nc1C(C)(O)C(F)(F)F` (single isomer, unassigned) [Compound 76a]: the IC50 in assay [1] (48 hours) was 81 nM; in assay [2], 78 nM; in assay [3] it was under 0.5 nM; in assay [4] it was 580 nM.
Consider `COc1cc2ncc(-c3nc(N[C@H]4CNCC[C@@H]4F)ccc3F)n2nc1C(C)(C)O` [Compound 4a, 2-(3-(3-fluoro-6-(((3S,4S)-4-fluoropiperidin-3-yl)amino)pyridin-2-yl)-7-methoxyimidazo[1,2-b]pyridazin-6-yl)propan-2-ol], for which the half-inhibitory concentration (IC50) in assay [1] (Homo sapiens, MOLM-14, 48 h) is 29 nM; in assay [2], 27 nM; in assay [3], under 0.5 nM; in assay [4] it was 221 nM.
For `COc1cc2ncc(-c3cccc(N[C@H]4CNCC[C@@H]4F)n3)n2nc1N1CCCC1=O` [Compound 26a, 1-(3-(6-(((3S,4S)-4-fluoropiperidin-3-yl)amino)pyridin-2-yl)-7-methoxyimidazo[1,2-b]pyridazin-6-yl)pyrrolidin-2-one] the same measures were 257 nM, 237 nM, 0.9 nM and 290 nM.
In the same order, the values of `COc1cc2ncc(-c3cccc(N[C@H]4CNC[C@@H]4F)n3)n2nc1N1CCCC1=O` [Compound 25a, 1-(3-(6-(((3S,4S)-4-fluoropyrrolidin-3-yl)amino)pyridin-2-yl)-7-methoxyimidazo[1,2-b]pyridazin-6-yl)pyrrolidin-2-one] are 1020 nM, 336 nM, 1 nM and 283 nM.
In the same order, the values of `COc1cc2ncc(-c3nc(N[C@@H]4CCCNC4)ccc3C)n2nc1C1CC1` [Compound 40a, (R)-6-(6-cyclopropyl-7-methoxyimidazo[1,2-b]pyridazin-3-yl)-5-methyl-N-(piperidin-3-yl)pyridin-2-amine] are 129 nM, 18 nM, under 0.5 nM and over 10000 nM.
For the compound `COc1cc2ncc(-c3nc(N[C@H]4CNCC[C@@H]4F)ccc3C)n2nc1C1CC1` [Compound 39a, 6-(6-cyclopropyl-7-methoxyimidazo[1,2-b]pyridazin-3-yl)-N-((3S,4S)-4-fluoropiperidin-3-yl)-5-methylpyridin-2-amine], the IC50 in assay [1] (Homo sapiens, MOLM-14, 48 h) is 129 nM; in assay [2], 45 nM; in assay [3] it was under 0.5 nM; in assay [4] it was 3360 nM.
In the case of `COc1cc2ncc(-c3ccc(F)c(N[C@H]4CNCC[C@@H]4F)n3)n2nc1C(C)(C)O` [Compound 1a, 2-(3-(5-fluoro-6-(((3S,4S)-4-fluoropiperidin-3-yl)amino)pyridin-2-yl)-7-methoxyimidazo[1,2-b]pyridazin-6-yl)propan-2-ol], the IC50 in assay [1] (Homo sapiens, MOLM-14, 48 h) stood at 182 nM; in assay [2], 158 nM; in assay [3], 3 nM; in assay [4], 2340 nM.
For `COc1cc2ncc(-c3ccc(C)c(N[C@H]4CNC[C@@H]4F)n3)n2nc1C1CC1` [Compound 42a, 6-(6-cyclopropyl-7-methoxyimidazo[1,2-b]pyridazin-3-yl)-N-((3S,4S)-4-fluoropyrrolidin-3-yl)-3-methylpyridin-2-amine] the same measures were 7250 nM, 8430 nM, 135 nM and over 10000 nM.
For the compound `COc1cc2ncc(-c3nc(N[C@H]4CNC[C@@H]4F)ccc3C)n2nc1C1CC1` [Compound 43a, 6-(6-cyclopropyl-7-methoxyimidazo[1,2-b]pyridazin-3-yl)-N-((3S,4S)-4-fluoropyrrolidin-3-yl)-5-methylpyridin-2-amine], the 50% inhibitory concentration (IC50) in assay [1] (Homo sapiens, MOLM-14, 48 h) came to 646 nM; in assay [2], 341 nM; in assay [3], 0.7 nM; in assay [4], 8270 nM.
With `COc1cc2ncc(-c3nc(N[C@@H]4CCCNC4)c(F)cc3F)n2nc1C1CCC1` [Compound 14a, (R)-6-(6-cyclobutyl-7-methoxyimidazo[1,2-b]pyridazin-3-yl)-3,5-difluoro-N-(piperidin-3-yl)pyridin-2-amine], the IC50 in assay [1] (Homo sapiens, MOLM-14, 48 h) was 15 nM; in assay [2] it was 4 nM; in assay [3], under 0.5 nM; in assay [4], 12 nM.
In the same order, the values of `COc1cc2ncc(-c3nc(N[C@H]4CNC[C@@H]4F)ccc3F)n2nc1C(C)(C)O` [Compound 2a, 2-(3-(3-fluoro-6-(((3S,4S)-4-fluoropyrrolidin-3-yl)amino)pyridin-2-yl)-7-methoxyimidazo[1,2-b]pyridazin-6-yl)propan-2-ol] are 129 nM, 24 nM, 0.8 nM and 610 nM.
In the same order, the values of `COc1cc2ncc(-c3ccc(F)c(N[C@@H]4CCCNC4)n3)n2nc1C1CC1` [Compound 49a, (R)-6-(6-cyclopropyl-7-methoxyimidazo[1,2-b]pyridazin-3-yl)-3-fluoro-N-(piperidin-3-yl)pyridin-2-amine] are 51 nM, 3 nM, under 0.5 nM and 449 nM.
As to `COc1cc2ncc(-c3nc(N[C@@H]4CCCNC4)ccc3F)n2nc1C(C)(C)O` [Compound 3a], the IC50 in assay [1] (Homo sapiens, MOLM-14, 48 h) came out at 46 nM; in assay [2], 148 nM; in assay [3] it was 1 nM; in assay [4], 437 nM.
For `Fc1cc(F)c(-c2cnc3cc(OCC(F)F)cnn23)nc1N[C@H]1CNC[C@@H]1F` [Compound 82a, 6-(7-(2,2-difluoroethoxy)imidazo[1,2-b]pyridazin-3-yl)-3,5-difluoro-N-((3 S,4S)-4-fluoropyrrolidin-3-yl)pyridin-2-amine] the same measures were 204 nM, 9 nM, under 0.5 nM and 441 nM.
